Source: patent US20160235727A1, “NOVEL PYRROLIDINE DERIVED BETA 3 ADRENERGIC RECEPTOR AGONISTS” (Merck Sharp & Dohme Corp., priority 2013, published 2016)

Biological target: T1, human β3-AR (Homo sapiens, UniProt P13945)
T1 construct: expressed in transfected cells; host or cells: CHO (Chinese hamster ovary) cells, stably transfected
Assay: cAMP functional agonist assay (LANCE TR-FRET) in CHO cells expressing cloned human β3-AR
Assay type: cell-based
Settings: for EC50: CHO cells stably expressing cloned human β3-adrenoceptor, cAMP release, read-out: Human β3-AR Agonism EC50; for Fold drop in potency vs. 2-chloropyridine analog: EC50 of comparative example divided by EC50 of corresponding 2-chloropyridine compound; for Human β3-AR Agonist Activity (%): percent maximum activation relative to isoproterenol
Method: The ability of compounds to activate the human β3-AR receptor was measured using a CHO cell line stably expressing the cloned human β1-, β2-, and β3-adrenoceptors (β-AR). […] To quantify the amount of cAMP released following β-AR activation, the LANCE cAMP kit (Perking Elmer), a time-resolved fluorescence resonance energy transfer immunoassay, was used. Compounds were serially diluted in DMSO and an aliquot added to either 384-well or 96-well micro titer plates in assay buffer (5 mM HEPES, 0.1% BSA in Hank's Balanced Salt Solution). […] Following 30 min incubation at room temperature, the cells were lysed by the addition of LANCE detection buffer which contained a europium-labeled cAMP tracer. Fluorescence was measured following one hour incubation at room temperature using a Perking Elmer Envision plate reader, exciting at 340 nm and measuring emission at 615 nm and 665 nm. For each assay, a cAMP standard curve was included and used to convert fluorescence readings directly to cAMP amounts. The values were then normalized to isoproterenol, a known full agonist of β-AR, which was titrated in every assay and the EC50 determined using a custom in-house data analysis package. Along with EC50, the percent maximum activation relative to isoproterenol is reported.
The cAMP production is measured using a homogenous time-resolved fluorescence resonance energy transfer immunoassay (LANCE™, Perkin Elmer) according to the manufacture's instructions. Chinese hamster ovary (CHO) cells, stably transfected with the cloned β-adrenergic receptor (β1, β2 or β3) are harvested after 3 days of subculturing. Harvesting of cells is done with Enzyme-free Dissociation Media (Specialty Media). Cells are then counted and resuspended in assay buffer (Hank's Balanced salt solution supplemented with 5 mM HEPES, […]) containing a phosphodiesterase inhibitor (IBMX, 0.6 mM). The reaction is initiated by mixing 6,000 cells in 6 μL with 6 μL Alexa Fluor labeled cAMP antibody (LANCE™ kit) which is then added to an assay well containing 12 μL of compound (diluted in assay buffer to 2× final concentration). The reaction proceeds for 30 minutes at RT and is terminated by the addition of 24 ul detection buffer (LANCE™ kit). The assay plate is then incubated for 1 h at RT and time-resolved fluorescence measured on a Perkin Elmer Envision reader or equivalent. The unknown cAMP level is determined by comparing fluorescence levels to a cAMP standard curve.
The non-selective, full agonist β-adrenergic ligand isoproterenol is used at all three receptors to determine maximal stimulation. […] Data are analyzed using Microsoft Excel and Graphpad Prism or an internally developed data analysis software package. […]

T1 sequence (P13945 whole entry): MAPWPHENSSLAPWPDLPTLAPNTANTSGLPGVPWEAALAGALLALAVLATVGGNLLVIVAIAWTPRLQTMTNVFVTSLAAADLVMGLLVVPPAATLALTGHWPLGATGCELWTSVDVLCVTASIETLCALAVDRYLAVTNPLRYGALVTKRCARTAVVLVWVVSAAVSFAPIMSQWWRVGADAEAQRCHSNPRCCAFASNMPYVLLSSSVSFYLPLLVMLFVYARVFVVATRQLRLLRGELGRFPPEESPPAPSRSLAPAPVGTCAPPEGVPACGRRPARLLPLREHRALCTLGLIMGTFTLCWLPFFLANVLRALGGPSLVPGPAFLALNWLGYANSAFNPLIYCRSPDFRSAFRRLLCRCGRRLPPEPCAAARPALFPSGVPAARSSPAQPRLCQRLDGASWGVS

COC(C)CN(C)C(=O)c1ccc(C[C@@H]2CC[C@H]([C@H](O)c3ccccc3)N2)cc1 (mixture of isomers) [Example 2-B, 4-(((2S,5R)-5-((R)-hydroxy(phenyl)methyl)pyrrolidin-2-yl)methyl)-N-(2-methoxypropyl)-N-methylbenzamide]
EC50: 168 nM
Fold drop in potency vs. 2-chloropyridine analog: 1.4 fold
Human β3-AR Agonist Activity (%): 94%

COCCN(C)C(=O)c1ccc(C[C@@H]2CC[C@H]([C@H](O)c3ccc(Cl)nc3)N2)cc1 [Example 1-A]
EC50: 96 nM
Human β3-AR Agonist Activity (%): 100%

COCCN(C)C(=O)c1ccc(C[C@@H]2CC[C@H]([C@H](O)c3ccccc3)N2)cc1 [Example 1-B, 4-(((2S,5R)-5-((R)-hydroxy(phenyl)methyl)pyrrolidin-2-yl)methyl)-N-(2-methoxyethyl)-N-methylbenzamide]
EC50: 443 nM
Fold drop in potency vs. 2-chloropyridine analog: 4.6 fold
Human β3-AR Agonist Activity (%): 93%

COC(C)CN(C)C(=O)c1ccc(C[C@@H]2CC[C@H]([C@H](O)c3ccc(Cl)nc3)N2)cc1 (stereo partly drawn) [Example 2-A, 4-(((2S,5R)-5-((R)-(6-chloropyridin-3-yl)(hydroxy)methyl)pyrrolidin-2-yl)methyl)-N-(2-methoxypropyl)-N-methylbenzamide]
EC50: 118 nM
Human β3-AR Agonist Activity (%): 86%

COC(CN(C)C(=O)c1ccc(C[C@@H]2CC[C@H]([C@H](O)c3ccc(Cl)nc3)N2)cc1)c1cccc(=O)[nH]1 (stereo partly drawn) [Example 3-A, 4-(((2S,5R)-5-((R)-(6-chloropyridin-3-yl)(hydroxy)methyl)pyrrolidin-2-yl)methyl)-N-(2-methoxy-2-(6-oxo-1,6-dihydropyridin-2-yl)ethyl)-N-methylbenzamide]
EC50: 204 nM
Human β3-AR Agonist Activity (%): 81%

COC(CN(C)C(=O)c1ccc(C[C@@H]2CC[C@H]([C@H](O)c3ccccc3)N2)cc1)c1cccc(=O)[nH]1 (stereo partly drawn) [Example 3-B, 4-(((2S,5R)-5-((R)-hydroxy(phenyl)methyl)pyrrolidin-2-yl)methyl)-N-(2-methoxy-2-(6-oxo-1,6-dihydropyridin-2-yl)ethyl)-N-methylbenzamide]
EC50: 410 nM
Fold drop in potency vs. 2-chloropyridine analog: 2.0 fold
Human β3-AR Agonist Activity (%): 101%

Cc1cc(CN(C)C(=O)c2ccc(C[C@@H]3CC[C@H]([C@H](O)c4ccc(Cl)nc4)N3)cc2)n[nH]1 [Example 4-A, 4-(((2S,5R)-5-((R)-(6-chloropyridin-3-yl)(hydroxy)methyl)pyrrolidin-2-yl)methyl)-N-methyl-N-((5-methyl-1H-pyrazol-3-yl)methyl)benzamide]
EC50: 5 nM
Human β3-AR Agonist Activity (%): 104%

Cc1cc(CN(C)C(=O)c2ccc(C[C@@H]3CC[C@H]([C@H](O)c4ccccc4)N3)cc2)n[nH]1 [Example 4-B, 4-(((2S,5R)-5-((R)-hydroxy(phenyl)methyl)pyrrolidin-2-yl)methyl)-N-methyl-N-((5-methyl-1H-pyrazol-3-yl)methyl)benzamide]
EC50: 14 nM
Fold drop in potency vs. 2-chloropyridine analog: 2.6 fold
Human β3-AR Agonist Activity (%): 108%

Cc1cc(CN(C)C(=O)c2ccc(C[C@@H]3CC[C@H]([C@H](O)c4ccc(OC(F)F)cc4)N3)cc2)n[nH]1 [Example 4-E, 4-(((2S,5R)-5-((R)-(4-(difluoromethoxy)phenyl)(hydroxy)methyl)pyrrolidin-2-yl)methyl)-N-methyl-N-((5-methyl-1H-pyrazol-3-yl)methyl)benzamide]
EC50: 90 nM
Fold drop in potency vs. 2-chloropyridine analog: 16.4 fold
Human β3-AR Agonist Activity (%): 79%

Cc1cc(CN(C)C(=O)c2ccc(C[C@@H]3CC[C@H]([C@H](O)c4ccc(F)cc4)N3)cc2)n[nH]1 [Example 4-F, 4-(((2S,5R)-5-((R)-(4-fluorophenyl)(hydroxy)methyl)pyrrolidin-2-yl)methyl)-N-methyl-N-((5-methyl-1H-pyrazol-3-yl)methyl)benzamide]
EC50: 19 nM
Fold drop in potency vs. 2-chloropyridine analog: 3.5 fold
Human β3-AR Agonist Activity (%): 105%

Cc1cc(CN(C)C(=O)c2ccc(C[C@@H]3CC[C@H]([C@H](O)c4ccc(Cl)cc4)N3)cc2)n[nH]1 [Example 4-G, 4-(((2S,5R)-5-((R)-(4-chlorophenyl)(hydroxy)methyl)pyrrolidin-2-yl)methyl)-N-methyl-N-((5-methyl-1H-pyrazol-3-yl)methyl)benzamide]
EC50: 4 nM
Fold drop in potency vs. 2-chloropyridine analog: 0.8 fold
Human β3-AR Agonist Activity (%): 95%

Cc1cc(CN(C)C(=O)c2ccc(C[C@@H]3CC[C@H]([C@H](O)c4ccc(F)nc4)N3)cc2)n[nH]1 [Example 4-Q, 4-(((2S,5R)-5-((R)-(6-fluoropyridin-3-yl)(hydroxy)methyl)pyrrolidin-2-yl)methyl)-N-methyl-N-((5-methyl-1H-pyrazol-3-yl)methyl)benzamide]
EC50: 78 nM
Fold drop in potency vs. 2-chloropyridine analog: 14.4 fold
Human β3-AR Agonist Activity (%): 106%

Cc1cc(CN(C)C(=O)c2ccc(C[C@@H]3CC[C@H]([C@H](O)c4cncc(F)c4)N3)cc2)[nH]n1 [Example 4-R, 4-(((2S,5R)-5-((R)-(5-fluoropyridin-3-yl)(hydroxy)methyl)pyrrolidin-2-yl)methyl)-N-methyl-N-((5-methyl-1H-pyrazol-3-yl)methyl)benzamide]
EC50: 45 nM
Fold drop in potency vs. 2-chloropyridine analog: 8.3 fold
Human β3-AR Agonist Activity (%): 101%

CCC(c1cc(C)n[nH]1)N(C)C(=O)c1ccc(C[C@@H]2CC[C@H]([C@H](O)c3ccc(Cl)nc3)N2)cc1 (stereo partly drawn) [Example 5-A, 4-(((2S,5R)-5-((R)-(6-chloropyridin-3-yl)(hydroxy)methyl)pyrrolidin-2-yl)methyl)-N-methyl-N-(1-(5-methyl-1H-pyrazol-3-yl)propyl)benzamide]
EC50: 2 nM
Human β3-AR Agonist Activity (%): 102%

CCC(c1cc(C)[nH]n1)N(C)C(=O)c1ccc(C[C@@H]2CC[C@H]([C@H](O)c3cccnc3)N2)cc1 (stereo partly drawn) [Example 5-H, 4-(((2S,5R)-5-((R)-hydroxy(pyridin-3-yl)methyl)pyrrolidin-2-yl)methyl)-N-methyl-N-(1-(5-methyl-1H-pyrazol-3-yl)propyl)benzamide]
EC50: 3 nM
Fold drop in potency vs. 2-chloropyridine analog: 1.6 fold
Human β3-AR Agonist Activity (%): 106%

Cc1cc(C(Cc2ccccc2)N(C)C(=O)c2ccc(C[C@@H]3CC[C@H]([C@H](O)c4ccc(Cl)nc4)N3)cc2)[nH]n1 (stereo partly drawn) [Example 6-A, 4-(((2S,5R)-5-((R)-(6-chloropyridin-3-yl)(hydroxy)methyl)pyrrolidin-2-yl)methyl)-N-methyl-N-(1-(5-methyl-1H-pyrazol-3-yl)-2-phenylethyl)benzamide]
EC50: 3 nM
Human β3-AR Agonist Activity (%): 93%

Cc1cc(C(Cc2ccccc2)N(C)C(=O)c2ccc(C[C@@H]3CC[C@H]([C@H](O)c4cccnc4)N3)cc2)[nH]n1 (stereo partly drawn) [Example 6-H, 4-(((2S,5R)-5-((R)-hydroxy(pyridin-3-yl)methyl)pyrrolidin-2-yl)methyl)-N-methyl-N-(1-(5-methyl-1H-pyrazol-3-yl)-2-phenylethyl)benzamide]
EC50: 7 nM
Fold drop in potency vs. 2-chloropyridine analog: 2.4 fold
Human β3-AR Agonist Activity (%): 92%

CC(C)c1cc(CN(C)C(=O)c2ccc(C[C@@H]3CC[C@H]([C@H](O)c4ccc(Cl)nc4)N3)cc2)n[nH]1 [Example 7-A, 4-(((2S,5R)-5-((R)-(6-chloropyridin-3-yl)(hydroxy)methyl)pyrrolidin-2-yl)methyl)-N-((5-isopropyl-1H-pyrazol-3-yl)methyl)-N-methylbenzamide]
EC50: 59 nM
Human β3-AR Agonist Activity (%): 95%
